Patent publication US12180187B2, “1-phenyl-5-azinylpyrazolyl-3-oxyalkyl acids and their use for controlling unwanted plant growth” (BAYER AKTIENGESELLSCHAFT, priority 2019, dated 2024)
“And” between values parts separate entries of the source, which are not always exact repeats. Identical values can stand only once.

Tests used:
ALOMY [1] = assay: Pre-emergence action against ALOMY, 1280 g/ha; format: in vivo, Alopecurus myosuroides; details: visual scoring after about 3 weeks vs untreated controls, 100% = plants have died, 0% = like control plants
In short: (§1)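 Weed seeds sown in sandy loam in pots, covered with soil; compound as WP or EC applied to soil surface as aqueous suspension/emulsion with 0.5% additive at 600 L/ha water. Greenhouse, good growth conditions; visual % damage vs untreated controls after about 3 weeks (100% = plants dead, 0% = like control).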

DIGSA [2] = assay: Pre-emergence action against DIGSA, 1280 g/ha; format: in vivo, Digitaria sanguinalis; details: visual scoring after about 3 weeks vs untreated controls, 100% = plants have died, 0% = like control plants
In short: as §1

ECHCG [3] = assay: Pre-emergence action against ECHCG, 1280 g/ha; format: in vivo, Echinochloa crus-galli; details: visual scoring after about 3 weeks vs untreated controls, 100% = plants have died, 0% = like control plants
In short: as §1

LOLRI [4] = assay: Pre-emergence action against LOLRI, 1280 g/ha; format: in vivo, Lolium rigidum; details: visual scoring after about 3 weeks vs untreated controls, 100% = plants have died, 0% = like control plants
In short: as §1

POAAN [5] = assay: Pre-emergence action against POAAN, 1280 g/ha; format: in vivo, Poa annua; details: visual scoring after about 3 weeks vs untreated controls, 100% = plants have died, 0% = like control plants
In short: as §1

SETVI [6] = assay: Pre-emergence action against SETVI, 1280 g/ha; format: in vivo, Setaria viridis; details: visual scoring after about 3 weeks vs untreated controls, 100% = plants have died, 0% = like control plants
In short: as §1

ABUTH [7] = assay: Pre-emergence action against ABUTH, 1280 g/ha; format: in vivo, Abutilon theophrasti; details: scored visually after about 3 weeks vs untreated controls (100% = plants have died)
In short: as §1

AMARE [8] = assay: Pre-emergence action against AMARE, 1280 g/ha; format: in vivo, Amaranthus retroflexus; details: scored visually after about 3 weeks vs untreated controls (100% = plants have died)
In short: as §1

KCHSC [9] = assay: Pre-emergence action against KCHSC, 1280 g/ha; format: in vivo, Bassia scoparia; details: scored visually after about 3 weeks vs untreated controls (100% = plants have died)
In short: as §1

MATIN [10] = assay: Pre-emergence action against MATIN, 1280 g/ha; format: in vivo, Tripleurospermum inodorum (Matricaria inodora); details: scored visually after about 3 weeks vs untreated controls (100% = plants have died)
In short: as §1

STEME [11] = assay: Pre-emergence action against STEME, 1280 g/ha; format: in vivo, Stellaria media; details: scored visually after about 3 weeks vs untreated controls (100% = plants have died)
In short: as §1

VERPE [12] = assay: Pre-emergence action against VERPE, 1280 g/ha; format: in vivo, Veronica persica; details: scored visually after about 3 weeks vs untreated controls (100% = plants have died)
In short: as §1

ALOMY [13] = assay: Pre-emergence action at 320 g/ha against ALOMY; format: in vivo, Alopecurus myosuroides; details: scored visually after about 3 weeks vs untreated controls (100% = plants have died)
In short: (§2)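 Application: aqueous WP or EC with 0.5% additive on soil covering seeds, 600 l/ha. Read-out: visual percent damage after ~3 weeks in greenhouse, untreated pots as reference.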

AVEFA = assay: Pre-emergence action at 320 g/ha against AVEFA; format: in vivo; details: visual scoring after about 3 weeks vs untreated controls
In short: as §2

DIGSA [14] = assay: Pre-emergence action at 320 g/ha against DIGSA; format: in vivo, Digitaria sanguinalis; details: visual scoring after about 3 weeks vs untreated controls
In short: as §2

ECHGC = assay: Pre-emergence action at 320 g/ha against ECHGC; format: in vivo, Echinochloa crus-galli; details: visual scoring after about 3 weeks vs untreated controls
In short: as §2

LOLRI [15] = assay: Pre-emergence action at 320 g/ha against LOLRI; format: in vivo, Lolium rigidum; details: visual scoring after about 3 weeks vs untreated controls
In short: as §2

SETVI [16] = assay: Pre-emergence action at 320 g/ha against SETVI; format: in vivo, Setaria viridis; details: visual scoring after about 3 weeks vs untreated controls
In short: as §2

AMARE [17] = assay: Pre-emergence action at 320 g/ha against AMARE; format: in vivo, Amaranthus retroflexus; details: visual scoring after about 3 weeks vs untreated controls
In short: as §2

MATIN [18] = assay: Pre-emergence action at 320 g/ha against MATIN; format: in vivo, Tripleurospermum inodorum (Matricaria inodora); details: visual scoring after about 3 weeks vs untreated controls
In short: as §2

PHBPU = assay: Pre-emergence action at 320 g/ha against PHBPU; format: in vivo; details: visual scoring after about 3 weeks vs untreated controls
From the text: b) Seeds of monocotyledonous and dicotyledonous weed plants and crop plants are placed in plastic or organic planting pots and covered with soil. The compounds of the invention, formulated in the form of wettable powders (WP) or as emulsion concentrates (EC), are then applied onto the surface of the covering soil as aqueous suspension or emulsion with addition of 0.5% additive at a water application rate of 600 l/ha (converted). After the treatment, the pots are placed in a greenhouse and kept under good growth conditions for the trial plants. After about 3 weeks, the effect of the preparations is scored visually in comparison with untreated controls as percentages. For example, 100% activity=the plants have died, 0% activity=like control plants. Tables 13 to 26 below show the effects of selected compounds of the general formula (I) on various harmful plants and at an application rate corresponding to 320 g/ha, which were obtained by the experimental procedure mentioned above.

POLCO = assay: Pre-emergence action at 320 g/ha against POLCO; format: in vivo, Fallopia convolvulus (Polygonum convolvulus); details: visual scoring after about 3 weeks vs untreated controls
In short: as §2

VERPE [19] = assay: Pre-emergence action at 320 g/ha against VERPE; format: in vivo, Veronica persica; details: visual scoring after about 3 weeks vs untreated controls
In short: as §2

VIOTR = assay: Pre-emergence action at 320 g/ha against VIOTR; format: in vivo, Viola tricolor; details: dosage 320 g/ha
In short: as §2

ALOMY [20] = assay: Post-emergence action against ALOMY, 1.28 kg/ha; format: in vivo, Alopecurus myosuroides; details: dosage 1280 g/ha, visual rating about 3 weeks after treatment vs untreated controls
In short: (§3)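 Weeds grown in sandy loam in a greenhouse were sprayed at the one-leaf stage, 2–3 weeks after sowing, with WP or EC formulations in water containing 0.5% additive at 600 L/ha. About 3 weeks later, damage was scored visually versus untreated controls (0% = like control, 100% = dead).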

DIGSA [21] = assay: Post-emergence action against DIGSA, 1.28 kg/ha; format: in vivo, Digitaria sanguinalis; details: dosage 1280 g/ha, visual rating about 3 weeks after treatment vs untreated controls
In short: as §3

ECHCG [22] = assay: Post-emergence action against ECHCG, 1.28 kg/ha; format: in vivo, Echinochloa crus-galli; details: dosage 1280 g/ha, visual rating about 3 weeks after treatment vs untreated controls
In short: as §3

LOLRI [23] = assay: Post-emergence action against LOLRI, 1.28 kg/ha; format: in vivo, Lolium rigidum; details: dosage 1280 g/ha, visual rating about 3 weeks after treatment vs untreated controls
In short: as §3

POAAN [24] = assay: Post-emergence action against POAAN, 1.28 kg/ha; format: in vivo, Poa annua; details: dosage 1280 g/ha, visual rating about 3 weeks after treatment vs untreated controls
In short: as §3

SETVI [25] = assay: Post-emergence action against SETVI, 1.28 kg/ha; format: in vivo, Setaria viridis; details: dosage 1280 g/ha, visual rating about 3 weeks after treatment vs untreated controls
In short: as §3

ABUTH [26] = assay: Post-emergence action against ABUTH, 1.28 kg/ha; format: in vivo, Abutilon theophrasti; details: dosage 1280 g/ha, visual rating about 3 weeks after treatment vs untreated controls (100% = plants died)
In short: as §3

AMARE [27] = assay: Post-emergence action against AMARE, 1.28 kg/ha; format: in vivo, Amaranthus retroflexus; details: dosage 1280 g/ha, visual rating about 3 weeks after treatment vs untreated controls (100% = plants died)
In short: as §3

KCHSC [28] = assay: Post-emergence action against KCHSC, 1.28 kg/ha; format: in vivo, Bassia scoparia; details: dosage 1280 g/ha, visual rating about 3 weeks after treatment vs untreated controls (100% = plants died)
In short: as §3

MATIN [29] = assay: Post-emergence action against MATIN, 1.28 kg/ha; format: in vivo, Tripleurospermum inodorum (Matricaria inodora); details: dosage 1280 g/ha, visual rating about 3 weeks after treatment vs untreated controls (100% = plants died)
In short: as §3

STEME [30] = assay: Post-emergence action against STEME, 1.28 kg/ha; format: in vivo, Stellaria media; details: dosage 1280 g/ha, visual rating about 3 weeks after treatment vs untreated controls (100% = plants died)
In short: as §3

VERPE [31] = assay: Post-emergence action against VERPE, 1.28 kg/ha; format: in vivo, Veronica persica; details: dosage 1280 g/ha, visual rating about 3 weeks after treatment vs untreated controls (100% = plants died)
In short: as §3

O=C(COc1nn(-c2ccccc2F)c(-c2ccc(F)nc2)c1Br)O[C@H]1CCOC1=O [VII-064]
Pre-emergence action against ALOMY (ALOMY [1]): 100% | Pre-emergence action against DIGSA (DIGSA [2]): 100% | Pre-emergence action against ECHCG (ECHCG [3]): 100% | Pre-emergence action against LOLRI (LOLRI [4]): 100% | Pre-emergence action against POAAN (POAAN [5]): 100% | Pre-emergence action against SETVI (SETVI [6]): 100% | Pre-emergence action against ABUTH (ABUTH [7]): 90% | Pre-emergence action against AMARE (AMARE [8]): 100% | Pre-emergence action against KCHSC (KCHSC [9]): 100% and 90% | Pre-emergence action against MATIN (MATIN [10]): 100% | Pre-emergence action against STEME (STEME [11]): 100% | Pre-emergence action against VERPE (VERPE [12]): 100% | Pre-emergence action at 320 g/ha against ALOMY in % (ALOMY [13]): 100% | Pre-emergence action against AVEFA in % (AVEFA): 90% | Pre-emergence action against DIGSA in % (DIGSA [14]): 100% | Pre-emergence action against ECHGC in % (ECHGC): 100% and 90% | Pre-emergence action against LOLRI in % (LOLRI [15]): 100% | Pre-emergence action against SETVI in % (SETVI [16]): 100% | Pre-emergence action against AMARE in % (AMARE [17]): 100% | Pre-emergence action against MATIN in % (MATIN [18]): 100% | Pre-emergence action against PHBPU in % (PHBPU): 90% | Pre-emergence action against POLCO in % (POLCO): 90% | Pre-emergence action against VERPE in % (VERPE [19]): 100% | Pre-emergence action against VIOTR in % (VIOTR): 100% | Post-emergence action against ALOMY (ALOMY [20]): 100% | Post-emergence action against DIGSA (DIGSA [21]): 100% | Post-emergence action against ECHCG (ECHCG [22]): 100% | Post-emergence action against LOLRI (LOLRI [23]): 100% and 90% | Post-emergence action against POAAN (POAAN [24]): 100% | Post-emergence action against SETVI (SETVI [25]): 100% and 90% | Post-emergence action against ABUTH (ABUTH [26]): 90% | Post-emergence action against AMARE (AMARE [27]): 90% and 100% | Post-emergence action against KCHSC (KCHSC [28]): 90% | Post-emergence action against MATIN (MATIN [29]): 100% and 90% | Post-emergence action against STEME (STEME [30]): 100% | Post-emergence action against VERPE (VERPE [31]): 100%
